Where “and” joins values, the source holds several entries; their conditions need not be identical. Equal entries are not always repeated. Calls of active or inactive are those of the source.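 Rule for the calls: active = compounds giving half or more protection of infected cells from virus-caused growth loss, again on retest; inactive = the rest.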 Where a SMILES comes first, the peptide text is derived from it. The star is where a group is joined. Cbz = O=C(OCc1ccccc1)*
Tested on: CEM cells HIV-1 protection, formazan growth assay
Assay: NCI AIDS Antiviral Assay
Conditions: for IC50: measured here: growth of uninfected CEM cells
Summary of the method: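 Protection of CEM cells against HIV-1 was scored from cell growth (soluble formazan) across five concentrations, with parallel uninfected cells. Lack of protection may reflect toxicity.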

Row | SMILES | EC50 [µM] | IC50 | outcome
1 | COc1cc(C2c3cc(OC)c(OC)c(O)c3C(=O)C3CCC(=O)N32)cc(OC)c1OC (stereo not given) | > 100 | 14.8 µM | –
2 | COC(=O)[C@@H]1c2cc3c(c(O)c2[C@@H](OC2OC(C)C(OC)C(C)(OC)C2OC)C[C@]1(C)O)C(=O)c1c(O)cc2c(c1C3=O)O[C@H]1O[C@]2(C)[C@H](O)[C@@H](N(C)C)[C@@H]1O (stereo not given in full) | – | – | inactive
3 | O=C1CSc2ccnc(=O)n21 | > 200 | > 200 µM | –
4 | Cn1c(C(O)(Cc2ccccn2)Cc2ccccn2)cc2ccccc21 | > 97.7 | 72.4 µM | –
5 | CCn1cc2c(=O)n3ncn(-c4ccc(Br)cc4)c3nc2n1 | – | – | inactive
6 | O=C(O)C(=Cc1ccc(Br)cc1)C(=O)O | > 912 | > 912 µM | –
7 | CCC1(c2ccc(N3C(=O)c4cccc5cc([N+](=O)[O-])cc(c45)C3=O)cc2)CCC(=O)NC1=O (stereo not given) | > 151 | 13.5 µM | –
8 | O=c1c(-c2ccccc2)c2n(c3ccccc13)CCN2 | > 200 | > 200 µM | –
9 | COc1ccccc1CO[C@]1(C)CNCC(C)(C)NC(=O)[C@](C)(OCc2ccccc2OC)CNCC(C)(C)NC1=O | > 200 | 91.2 µM | –
10 | COC(=O)C(=O)C(/C(=N/N)C(=O)Nc1ccccc1C(N)=O)c1nc2ccc([N+](=O)[O-])cc2[nH]c1=O (stereo not given) | > 501 | 204 µM | –
11 | CC1=N/C(=C\c2ccc(C#N)cc2)C(=O)O1 | > 123 | > 123 µM | –
12 | COc1ccc(C2=NN(c3nsc4ccccc34)C(=O)CC2)cc1 | > 40.7 | > 40.7 µM | –
13 | O=c1cc(CN2CCCCC2)[nH]c2c1ccc1nc(CN3CCCCC3)cc(=O)n12 | > 100 | > 100 µM | –
14 | CCOC(=O)Oc1c(Cl)cc(C(=CCC[C@H]2CC[C@@]3(C)[C@@H](CC[C@@H]4[C@@H]3CC[C@]3(C)[C@@H](C(C)CCCC(C)C)CC[C@@H]43)C2)c2cc(Cl)c(OC(=O)OCC)c(C(=O)OCC)c2)cc1C(=O)OCC (stereo not given in full) | – | – | inactive
15 | CN(c1ccc(Cl)cc1)S(=O)(=O)c1ccccc1 | > 200 | 50.1 µM | –
16 | Cc1ccc(-n2c3nc(=O)n(C)c(=O)c-3nc3ccccc32)c(C)c1 | – | – | inactive
17 | NC(=O)C(=CNC(=S)c1cccnc1)C(N)=O | > 200 | 74.1 µM | –
18 | CCOC(=O)C1=C(Nc2ccc(Cl)cc2Cl)OCC1=O | – | – | inactive
19 | Cc1cc(N(C)c2ccccc2)nc(N(C)c2ccccc2)n1 | > 200 | 60.3 µM | –
20 | CCc1noc(N)c1C#N | > 200 | 182 µM | –
21 | COc1ccc2c(C)cc(N/N=C/c3ccc(C)s3)nc2c1 | > 200 | 9.12 µM | –
22 | CN1C(=O)c2ccccc2N=CN1C(=O)Nc1ccccc1 | > 123 | > 123 µM | –

Row | SMILES | EC50 [µM] | IC50 | outcome
23 | CC1(Cn2ccc(=O)[nH]c2=O)CC(C2(C)OCCO2)C(=O)O1 (stereo not given) | > 813 | > 813 µM | –
24 | CCOC(=O)C(C)(c1c[nH]c2ccccc12)c1c[nH]c2ccccc12 | > 200 | 19.5 µM | –
25 | O=C(O)CN(c1ccccc1)S(=O)(=O)c1ccc(NC(=O)c2ccccc2)cc1 | – | – | inactive
26 | COc1ccc(CC2(Cc3ccc(OC)cc3)CCOC2=O)cc1 | > 21.9 | > 21.9 µM | –
27 | CC(C)(CCCCC(C)(C)[N+](C)(C)C)[N+](C)(C)C | > 200 | > 200 µM | –
28 | C=C(C)C(OC(C)=O)C(OCC)c1c(OC)ccc2ccc(=O)oc12 (stereo not given) | > 50.1 | > 50.1 µM | –
29 | N#CC1Sc2ccccc2-n2cccc21 (stereo not given) | – | – | inactive
30 | O=C1CS(=O)(=O)C(c2ccccc2F)N1N1C(=O)CS(=O)(=O)C1c1ccccc1F (stereo not given) | > 151 | > 151 µM | –
31 | CC1=CC2OC3CC4OC(=O)/C=C/C=C/C(C(C)O)OCC(O)C(C)CC(=O)OCC2(CC1O)C4(C)C31CO1 (stereo not given) | > 0.2 | 0.0631 µM | –
32 | CN(CC#N)C1CCC[C@]1(O)/C=C/[Si](C)(C)C (stereo not given in full) | > 102 | > 102 µM | –
33 | O=C(CC1C(=O)Nc2ccccc2S1=O)Nc1cc(Cl)ccc1Cl (stereo not given) | > 3.8 | > 3.8 µM | –
34 | Nc1nn2cc3c(nc2c1N=Nc1ccccc1)CCCC3 | > 200 | 4.47 µM | –
35 | CCCCCCCCCC=C(c1cc(Cl)c(OC)c(C(=O)O)c1)c1cc(Cl)c(OC)c(C(=O)O)c1 | 263 | 316 µM | –
36 | c1ccc2c(c1)Nc1nc3ccccc3nc1N2 | > 100 | > 100 µM | –
37 | O=[N+]([O-])c1cccc2nc3ccccc3c(NCCNCCO)c12 | > 2 | 0.0316 µM | –
38 | CCOC(=O)C(=O)C1C(=O)Nc2ccccc21 (stereo not given) | > 398 | 204 µM | –
39 | CCCc1cc(=O)oc2c3c(c4c(c12)OC(C)(C)C=C4)OC(C)[C@H](C)[C@@H]3O (stereo not given in full) | 5.01 | 13.8 µM | –
40 | CCCCCCCCCCCCOCCCCCCCCC/C=C/c1ccc2c(c1)OCCOCCOCCOCCO2 | > 200 | 15.1 µM | –
41 | COc1cc(/C=C/C(=O)O)ccc1OS(=O)(=O)O | > 200 | > 200 µM | –
42 | COC(=O)C(=O)C1(CCC(C)=O)c2ccccc2-c2c(C)ccc(C)c21 (stereo not given) | – | – | inactive
43 | CC(C)C(NC(=O)C(Cc1ccccc1)NC(=O)[C@H]1CCC[C@H]1NC(=O)C(Cc1ccc(OC(C)(C)C)cc1)NC(=O)OC(C)(C)C)C(N)=O (stereo not given in full) | > 200 | 29.5 µM | –
44 | COc1nc(N)c(NC2OC(CO)C(O)C2O)c(=O)[nH]1 (stereo not given) | > 200 | 112 µM and 126 µM | –

Row | SMILES | EC50 [µM] | IC50 | outcome
45 | O=C1C=C(C2=C(C3=CC(=O)c4ccccc4C3=O)C(=O)c3ccccc3C2=O)C(=O)c2ccccc21 | > 100 | 1.38 µM | –
46 | COC1(C)CC2N(C(=O)c3ccccc3)N=C(c3ccccc3)CC2(C)O1 (stereo not given) | > 100 | > 100 µM | –
47 | COc1cccc(CCNC(=O)CC#N)c1 | – | – | inactive
48 | CC1=N/C(=C\c2cccc([N+](=O)[O-])c2)C(=O)O1 | > 562 | > 562 µM | –
49 | O=C(O)c1ccc(CS(=O)(=O)c2ccccc2C(=O)O)c([N+](=O)[O-])c1 | > 692 | > 692 µM | –
50 | Cc1cccc2c1C(=O)/C(=C/c1ccccc1C(=O)O)C2 | > 200 | 123 µM | –
51 | COC(=O)C1CCC[C@H]2C(CO)=C(C)C(=O)[C@@H]12 (stereo not given in full) | 182 | > 200 µM | –
52 | N#CC(C#N)=C/C=C/c1c(Cl)cccc1Cl | > 200 | 2.57 µM | –
53 | CCOC(=O)CCC(NC(=O)C(CC(=O)OC)NC(=O)OCc1ccccc1)C(=O)NC(CC(=O)OC)C(=O)NC(CCC(=O)OCC)C(=O)NC(CC(=O)OC)C(=O)NC(CCC(=O)OCC)C(=O)NC(CC(=O)OCC)C(=O)OCC (stereo not given) (Cbz-D(OMe)E(OEt)D(OMe)E(OEt)D(OMe)E(OEt)D(OEt)-OEt; configuration not given here) | > 200 | > 200 µM | –
54 | CO/C(=N\N=C\c1ccccc1F)c1ccncc1 | > 141 | > 141 µM | –
55 | COc1ccc(C2C3C(=O)OCCOC(=O)C3C2c2ccc(OC)c(OC)c2)cc1OC (stereo not given) | > 91.2 | 83.2 µM | –
56 | CC1(C)OCC(/C=C\C(O)CC2(C)OCCO2)CO1 (stereo not given) | – | – | inactive
57 | CC(C)[C@@H]1CC[C@]2(COC(=O)CC(C)(C)CC(=O)O)CC[C@]3(C)[C@H](CC[C@@H]4[C@@]5(C)CC[C@H](OC(=O)CC(C)(C)CC(=O)O)C(C)(C)[C@@H]5CC[C@]43C)[C@@H]12 | > 200 | 9.77 µM | –
58 | CCCCCCC(c1ccc(O)c(C(=O)O)c1)c1ccc(O)c(C(=O)O)c1 | > 1000 | 166 µM | –
59 | COc1c2c(cc3c1[C@@H]1Oc4c(ccc(O)c4CC=C(C)C)[C@@H]1CO3)OC(C)(C)C=C2 | 2.24 | 23.4 µM | –
60 | CCOC(=O)C(=C/C=C/NCCc1c[nH]c2ccccc12)C(=O)OCC | > 10.7 | > 10.7 µM | –
61 | CC(=O)Nc1ccc(-c2nnc(SCC(=O)Nc3ccc(C)cc3)o2)cc1 | > 67.6 | 11.7 µM | –
62 | N#CCCC1(CCC#N)S(=O)(=O)OCCOS1(=O)=O | > 200 | 44.7 µM | –
63 | CCc1c(Sc2ccccn2)n(COCc2ccccc2)c(=O)[nH]c1=O | 91.2 | 339 µM | –
64 | Nc1ncnc2c1ncn2CC1OCC(CO)O1 (stereo not given) | > 3090 | 2750 µM and 2340 µM | –
65 | Cn1cnc2[nH]c(=O)n(O)c(=O)c21 | > 200 | 35.5 µM | –
66 | O=C(O)CCOCCCCCCCCCl | – | – | inactive

Row | SMILES | EC50 [µM] | IC50 | outcome
67 | CC(=O)OCCOCn1cnc2c(Cl)nc(Cl)nc21 | > 200 | 7.24 µM | –
68 | Cn1cnc([N+](=O)[O-])c1SC1=NCCS1 | > 1020 | 7.08 µM | –
69 | C=C(Br)CN(CC(=C)Br)C(C)=O | > 200 | > 200 µM | –
70 | COc1cc2c(oc(=O)c3cc4ccoc4c(OC)c32)c2cccc(O)c12 | > 1.45 | > 1.45 µM | –
71 | CCCCCCCCCCCOC(=S)NC(C)C | – | – | inactive
72 | CC(=O)OC1(c2ccccc2)OC(=O)C(C)(C)c2ccccc21 (stereo not given) | > 158 | > 158 µM | –
73 | CCOC(=O)C(NCc1cccc(C(F)(F)F)c1)(NC(=O)CC)C(F)(F)F (stereo not given) | > 200 | > 100 µM | –
74 | COc1cc2c(cc1OC)C(=O)Cc1ccc3c(c1CNCC2)OCO3 | > 141 | > 141 µM | –
75 | FC(F)(F)C1(C(F)(F)F)C2CCC3(CC(F)(F)C(F)(F)S3)C1C2 (stereo not given) | > 200 | > 200 µM | –
76 | O=S(=O)(N=[Se](=O)(c1ccccc1)c1ccccc1)c1ccccc1 | > 200 | 115 µM | –
77 | O=C(NCc1cccnc1)C1COc2cc(-c3cc(=O)c4ccccc4o3)ccc2O1 (stereo not given) | – | – | inactive
78 | COc1ccc(C2C(C(C)=O)=C(C)NC(C)=C2C(C)=O)cc1 | > 200 | > 200 µM | –
79 | CC(C)(C)OC(=O)NS(=O)(=O)Nc1ccccc1 | > 200 | > 200 µM | –
80 | O=C1OC(=O)C2C3C=CC(C12)C1C2C=CC2C31 (stereo not given) | – | – | inactive
81 | CC(C)C(NC(=O)Oc1ccccc1)C(=O)NC1c2c(Br)sc(Br)c2C(=O)C1O (stereo not given) | > 200 | 11.7 µM | –
82 | Cc1ccc(-c2cc(-c3ccccc3)c(C#N)c(=O)n2C2OC(CO)C(O)C(O)C2O)cc1 (stereo not given) | 21.4 | 22.4 µM | –
83 | COC(=O)/C=C/c1c(CC=C(C)C)ncn1C | > 537 | 3.47 µM | –
84 | CCOC(=O)[C@@H]1ON2OC(OC3CCCC3(c3ccccc3)c3ccccc3)C(OC(C)=O)[C@H]3OC(=O)[C@@H]1C32 (stereo not given in full) | > 200 | > 200 µM | –
85 | C[C@]12CCCC(=O)C1(O)C[C@H](C(=O)O)CC2 (stereo not given in full) | – | – | inactive

Source: PubChem BioAssay AID179 (DTP/NCI, 2004)
